Tests used:
[1] = test system: rape; test: Test B pre/postemergence rape; format: in vivo, Brassica napus
How it was run: (§1)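 Herbicidal effect was estimated by eye on a ten-point control scale after plants spent twelve to sixteen days in a greenhouse following soil or foliar treatment. Foliar sprays targeted plants at one to four leaves; all doses were formulated in a non-phytotoxic solvent with surfactant.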

[2] = test system: wheat; test: Test B pre/postemergence wheat; format: in vivo, Triticum aestivum
How it was run: as §1

[3] = test system: sugar beet; test: Test B pre/postemergence sugar beet; format: in vivo, Beta vulgaris
How it was run: as §1

[4] = test system: bedstraw; test: Test B pre/postemergence bedstraw; format: in vivo, Galium aparine; details: Preemergence
How it was run: as §1

[5] = test system: soybean; test: Test B pre/postemergence soybean; format: in vivo, Glycine max
How it was run: as §1

[6] = test system: surinam grass; test: Test B pre/postemergence surinam grass; format: in vivo, Brachiaria decumbens
How it was run: as §1

[7] = test system: smallflower flatsedge; test: Test B flood test smallflower flatsedge; format: in vivo, Cyperus difformis
How it was run: (§2)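 Read-out is a visual response score from 0 (no effect) to 10 (complete control), assigned by comparison with untreated controls. Treatment was applied at the 2-leaf stage, and plants stayed in the greenhouse for twelve to sixteen days before scoring.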

[8] = test system: duck salad; test: Test B flood test duck salad; format: in vivo, Heteranthera limosa
How it was run: as §2

[9] = test system: corn; test: Test B pre/postemergence corn; format: in vivo, Zea mays
How it was run: as §1

[10] = test system: purple nutsedge; test: Test B pre/postemergence purple nutsedge; format: in vivo, Cyperus rotundus
How it was run: as §1

[11] = test system: bamyardgrass; test: Test B flood test barnyardgrass; format: in vivo, Echinochloa crus-galli
How it was run: as §2

[12] = test system: rice; test: Test B flood test rice; format: in vivo, Oryza sativa
How it was run: as §2

[13] = test system: blackgrass; test: Test B pre/postemergence blackgrass; format: in vivo, Alopecurus myosuroides
How it was run: as §1

[14] = test system: pigweed; test: Test B pre/postemergence pigweed; format: in vivo, Amaranthus retroflexus
How it was run: as §1

[15] = test system: morningglory; test: Test B pre/postemergence morningglory; format: in vivo, Ipomoea hederacea
How it was run: as §1

[16] = test system: crabgrass; test: Test B pre/postemergence crabgrass; format: in vivo, Digitaria sanguinalis
How it was run: as §1

[17] = test system: cocklebur; test: Test B pre/postemergence cocklebur; format: in vivo, Xanthium strumarium
How it was run: as §1

[18] = test system: giant foxtail; test: Test B pre/postemergence giant foxtail; format: in vivo, Setaria faberii
How it was run: as §1

[19] = test system: velvetleaf; test: Test B pre/postemergence velvetleaf; format: in vivo, Abutilon theophrasti
How it was run: as §1

[20] = test system: wild oat; test: Test B pre/postemergence wild oat; format: in vivo, Avena fatua
How it was run: as §1

[21] = Postemergence, Rate 31 g/ha, visual rating, scale 0 to 10 (0 no effect, 10 complete control)
[22] = Postemergence, Rate 250 g/ha, scale 0 to 10, 0 is no effect, 10 is complete control
[23] = Preemergence, Rate 62 g/ha, scale 0 to 10 (0 no effect, 10 complete control)
[24] = Preemergence, Rate 125 g/ha, scale of 0 to 10 where 0 is no effect and 10 is complete control
[25] = Preemergence, Rate 250 g/ha, scale of 0 to 10 where 0 is no effect and 10 is complete control
[26] = Rate 62 g/ha, Postemergence, scale of 0 to 10 where 0 is no effect and 10 is complete control
[27] = Postemergence, Rate 125 g/ha, scale 0 to 10, 0 is no effect, 10 is complete control
[28] = Preemergence, Rate 31 g/ha, visual rating, scale 0 to 10 (0 no effect, 10 complete control)
[29] = Rate 31 g/ha, Pre-emergence section (flood test species), scale 0 to 10
[30] = Rate 62 g/ha, flood test species, Pre-emergence, visual evaluation after twelve to sixteen days
[31] = Rate 125 g/ha, under heading Pre-emergence, flood test species, visual evaluation after twelve to sixteen days
[32] = Rate 250 g/ha, Pre-emergence, flood-test species, scale 0 to 10, 0 is no effect, 10 is complete control

CC(C)N(C(=O)n1oc(=O)n([C@@H]2C[C@H]2C)c1=O)c1ccc(F)cc1 (relative stereo) [Compound 392] was tested, and the “Rape plant response rating” value [1, 21] was 0, the “Plant response rating, Rape” value [1, 22] was 0 and the “Plant response rating, Rape” value [1, 23] was 0. The “Plant response rating, Rape” value [1, 24] was 0, the “Rape plant response rating” value [1, 25] was 5 and the “Rape plant response rating” value [1, 26] was 0. For the same compound, the “Wheat plant response rating” value [2, 21] was 0, the “Plant response rating, Wheat” value [2, 23] was 0 and the “Plant response rating, Wheat” value [2, 24] was 3. The “Wheat plant response rating” value [2, 25] was 8, the “Wheat plant response rating” value [2, 26] was 0 and the “Sugarbeets plant response rating” value [3, 21] was 0. The “Plant response rating, Sugarbeets” value [3, 22] was 0, the “Plant response rating, Sugarbeets” value [3, 23] was 0 and the “Plant response rating, Sugarbeets” value [3, 24] was 3. For the same compound, the “Sugarbeets plant response rating” value [3, 25] was 7, the “Sugarbeets plant response rating” value [3, 26] was 0 and the “Bedstraw plant response rating” value ([4]; Rate 31 g/ha, visual rating, scale 0 to 10 (0 no effect, 10 complete control)) was 0. For the same compound, the “Plant response rating, Bedstraw” value ([4]; Rate 125 g/ha, scale of 0 to 10 where 0 is no effect and 10 is complete control) was 8, the “Bedstraw plant response rating” value ([4]; Rate 250 g/ha, scale of 0 to 10 where 0 is no effect and 10 is complete control) was 10 and the “Soybean plant response rating” value [5, 21] was 1. The “Plant response rating, Soybean” value [5, 22] was 2, the “Plant response rating, Soybean” value [5, 23] was 0 and the “Plant response rating, Soybean” value [5, 24] was 0. The “Soybean plant response rating” value [5, 25] was 0, the “Soybean plant response rating” value [5, 26] was 1 and the “B. signalgrass plant response rating” value [6, 21] was 0. The “Plant response rating, B. signalgrass” value [6, 27] was 5, the “Plant response rating, B. signalgrass” value [6, 22] was 7 and the “B. signalgrass plant response rating” value [6, 28] was 0. For the same compound, the “Plant response rating, B. signalgrass” value [6, 23] was 2, the “Plant response rating, B. signalgrass” value [6, 24] was 3 and the “B. signalgrass plant response rating” value [6, 25] was 9. The “B. signalgrass plant response rating” value [6, 26] was 1, the “S. Flatsedge plant response rating” value [7, 29] was 0 and the “Plant response rating, S. Flatsedge (0 to 10 scale, 0 is no effect, 10 is complete control)” value [7, 30] was 0. For the same compound, the “S. Flatsedge plant response rating (0 to 10 scale, 0 is no effect, 10 is complete control)” value [7, 31] was 0, the “S. Flatsedge plant response rating” value [7, 32] was 0 and the “Ducksalad plant response rating” value [8, 29] was 0. For the same compound, the “Plant response rating, Ducksalad (0 to 10 scale, 0 is no effect, 10 is complete control)” value [8, 30] was 0, the “Ducksalad plant response rating (0 to 10 scale, 0 is no effect, 10 is complete control)” value [8, 31] was 0 and the “Ducksalad plant response rating” value [8, 32] was 0. The “Corn plant response rating” value [9, 21] was 0, the “Plant response rating, Corn” value [9, 27] was 0 and the “Plant response rating, Corn” value [9, 22] was 0. For the same compound, the “Corn plant response rating” value [9, 28] was 0, the “Plant response rating, Corn” value [9, 23] was 0 and the “Plant response rating, Corn” value [9, 24] was 3. For the same compound, the “Corn plant response rating” value [9, 25] was 9, the “Corn plant response rating” value [9, 26] was 0 and the “Nutsedge plant response rating” value [10, 21] was 0. The “Plant response rating, Nutsedge” value [10, 22] was 0, the “Plant response rating, Nutsedge” value [10, 23] was 0 and the “Plant response rating, Nutsedge” value [10, 24] was 0. For the same compound, the “Nutsedge plant response rating” value [10, 25] was 0, the “Nutsedge plant response rating” value [10, 26] was 0 and the “Barnyardgrass plant response rating” value [11, 29] was 0. For the same compound, the “Plant response rating, Barnyardgrass (0 to 10 scale, 0 is no effect, 10 is complete control)” value [11, 30] was 0, the “Barnyardgrass plant response rating (0 to 10 scale, 0 is no effect, 10 is complete control)” value [11, 31] was 0 and the “Barnyardgrass plant response rating” value [11, 32] was 0. For the same compound, the “Rice plant response rating” value [12, 29] was 0, the “Plant response rating, Rice (0 to 10 scale, 0 is no effect, 10 is complete control)” value [12, 30] was 0 and the “Rice plant response rating (0 to 10 scale, 0 is no effect, 10 is complete control)” value [12, 31] was 0. For the same compound, the “Rice plant response rating” value [12, 32] was 0, the “Blackgrass plant response rating” value [13, 21] was 7 and the “Plant response rating, Blackgrass” value [13, 27] was 10. The “Plant response rating, Blackgrass” value [13, 22] was 10, the “Blackgrass plant response rating” value [13, 28] was 2 and the “Plant response rating, Blackgrass” value [13, 23] was 6. For the same compound, the “Plant response rating, Blackgrass” value [13, 24] was 8, the “Blackgrass plant response rating” value [13, 25] was 10 and the “Blackgrass plant response rating” value [13, 26] was 7. The “Redroot pigweed plant response rating” value [14, 21] was 0, the “Plant response rating, Redroot pigweed” value [14, 22] was 6 and the “Plant response rating, Redroot pigweed” value [14, 23] was 2. For the same compound, the “Plant response rating, Redroot pigweed” value [14, 24] was 7, the “Redroot pigweed plant response rating” value [14, 25] was 10 and the “Redroot pigweed plant response rating” value [14, 26] was 0. The “Morningglory plant response rating” value [15, 21] was 3, the “Plant response rating, Morningglory” value [15, 22] was 7 and the “Plant response rating, Morningglory” value [15, 23] was 0. The “Plant response rating, Morningglory” value [15, 24] was 0, the “Morningglory plant response rating” value [15, 25] was 0 and the “Morningglory plant response rating” value [15, 26] was 5. For the same compound, the “Crabgrass plant response rating” value [16, 21] was 1, the “Plant response rating, Crabgrass” value [16, 27] was 2 and the “Plant response rating, Crabgrass” value [16, 22] was 7. For the same compound, the “Crabgrass plant response rating” value [16, 28] was 8, the “Plant response rating, Crabgrass” value [16, 23] was 10 and the “Plant response rating, Crabgrass” value [16, 24] was 10. For the same compound, the “Crabgrass plant response rating” value [16, 25] was 10, the “Crabgrass plant response rating” value [16, 26] was 2 and the “Cocklebur plant response rating” value [17, 21] was 0. For the same compound, the “Plant response rating, Cocklebur” value [17, 27] was 2, the “Plant response rating, Cocklebur” value [17, 22] was 2 and the “Cocklebur plant response rating” value [17, 28] was 0. The “Plant response rating, Cocklebur” value [17, 23] was 0, the “Plant response rating, Cocklebur” value [17, 24] was 0 and the “Cocklebur plant response rating” value [17, 25] was 0. The “Cocklebur plant response rating” value [17, 26] was 0, the “Giant foxtail plant response rating” value [18, 21] was 7 and the “Plant response rating, Giant foxtail” value [18, 27] was 9. The “Plant response rating, Giant foxtail” value [18, 22] was 9, the “Giant foxtail plant response rating” value [18, 28] was 10 and the “Plant response rating, Giant foxtail” value [18, 23] was 10. The “Plant response rating, Giant foxtail” value [18, 24] was 10, the “Giant foxtail plant response rating” value [18, 25] was 10 and the “Giant foxtail plant response rating” value [18, 26] was 7. The “Velvetleaf plant response rating” value [19, 21] was 0, the “Plant response rating, Velvetleaf” value [19, 22] was 2 and the “Plant response rating, Velvetleaf” value [19, 23] was 0. The “Plant response rating, Velvetleaf” value [19, 24] was 3, the “Velvetleaf plant response rating” value [19, 25] was 5 and the “Velvetleaf plant response rating” value [19, 26] was 0. For the same compound, the “Wild oats plant response rating” value [20, 21] was 0, the “Plant response rating, Wild oats” value [20, 23] was 2 and the “Plant response rating, Wild oats” value [20, 24] was 9. The “Wild oats plant response rating” value [20, 25] was 10 and the “Wild oats plant response rating” value [20, 26] was 0.
